{"source": "patent US20140336220A1", "about": "“COMPOSITION FOR PREVENTING OR TREATING OBESITY COMPRISING REBAMIPIDE” (The Catholic University of Korea Industry-Academic …, priority 2011, published 2014)", "key": {"[1]": {"tested_on": "animal models induced with obesity", "assay": "Adipocyte in liver frozen sections, haematoxylin and eosin and Oil red O staining", "format": "in vivo, mouse", "details": "oral administration, 51 days, H&E and Oil red O staining, vs control induced with obesity, FIG. 2", "description": "In order to check fat inhibition effect of rebamipide, after supply of a high fat diet for 51 days was ended, a food was stopped at 12 hours before an experiment period was ended. Then, a frozen section (7 μm) obtained from a liver was haematoxylin and eosin staining and Oil red O staining. As a result of staining including the haematoxylin and eosin staining and Oil red O staining, it could be seen that in the liver obtained after oral administration with rebamipide, adipocyte were reduced as compared with a control induced with obesity (refer to FIG. 2)."}, "[2]": {"tested_on": "Th17 cells and Treg cells in spleen", "assay": "Th17 and Treg cells in spleen sections, confocal microscope", "format": "in vivo, mouse", "details": "obese mice treated with rebamipide, FIG. 5A, 5B", "description": "(§1) In order to investigate whether or not rebamipide according to the present disclosure affected Th17 and Treg, the inventors of the present disclosure embedded a frozen section (optimal cutting temperature compound: O.C.T. compound) using the spleen of a mouse and rapidly cooled the tissue in liquid nitrogen and attached the tissue on a slide to a thickness of 7 μm using a cryo microtome. Then, the section was fixed with acetone and coated with 10% normal goat serum and blocked from a non-specific reaction for 30 minutes. Thereafter, the section was reacted at 4° C. overnight with primary antibodies, i.e. FITC-labeled anti-mFoxp3 Ab, PElabeled anti-mCD4 Ab, and APC-labeled anti-CD25 Ab, diluted with PBS (pH 7.5) at a ratio of 1:100 for Treg analysis and reacted with FITC-labeled anti-mCD4 Ab, and PE-labeled anti-mIL-17 for Th17 cell analysis. On the next day, the section was washed with a PBS solution, and a stained tissue was analyzed with a confocal microscope."}, "spleen cells": {"tested_on": "spleen cells", "assay": "Spleen cell proliferation after aCD3 stimulation, thymidine", "format": "cell-based, mouse", "details": "FIG. 7B", "description": "The spleen was extracted from the mouse of each group and spleen cells 2×10^5 of each mouse were divided into a 96-well plate and stimulated with 0.5 μg/ml of aCD3 and then cultured for 3 days. 16 hours before acquirement, the cells were stimulated with thymidine of […], and then, 16 hours after stimulation, proliferation of the mouse cells was measured."}, "pre-adipocyte": {"tested_on": "pre-adipocyte", "assay": "Adipocyte differentiation of pre-adipocyte, Oil red O analysis", "format": "cell-based", "details": "vs untreated cells, dependent on dose of rebamipide, FIG. 8", "description": "In order to check whether or not rebamipide has a […] inhibition effect, the inventors of the present disclosure divided pre-adipocyte in an amount of 1.2×10^4/2 ml into a 24-well plate, and when the cells were completely packed, the cells were cultured again for 48 hours. After 48 hours, differentiation of adipocyte was induced with replacement of a culture medium added with dexamethasone, insulin, and isobutylmethylxanthine. In this case, rebamipide was also used to stimulate while being dissolved in DMSO. 3 days after differentiation, differentiation of adipocyte was maintained with replacement with a culture medium added with dexamethasone and insulin once per two days. After 4 days, Oil red O analysis was carried out."}, "[3]": {"tested_on": "animal group induced with obesity", "assay": "Brown fat to white fat ratio, interscapular region", "format": "in vivo, mouse", "details": "30 mg/kg and 100 mg/kg, vs animal group induced with obesity, FIG. 10", "description": "Thus, in order to check an effect of treatment with rebamipide on white fat and brown fat in vivo, the inventors of the present disclosure separated fat from an interscapular region of an animal group induced with obesity and a group treated with rebamipide with a dose of 30 mg/kg and 100 mg/kg and divided into white fat and brown fat. A weight of each of the white fat and the brown fat was measured, and an amount of the brown fat with respect to the white fat was calculated."}, "[4]": {"tested_on": "animal model with obesity induced arthritis", "assay": "Immunohistochemistry staining of inflammatory cytokines in joint", "format": "in vivo, mouse", "details": "immunochemical staining, vs obesity induced arthritis group, FIG. 14", "description": "In order to check whether or not rebamipide of the present disclosure specifically can inhibit inflammatory cytokines such as IL-17, IL-6, IL-1b, TNF-a, and Nitrothyrosine in the joint of an animal model with obesity induced arthritis, the joint of a mouse was treated by the same method as illustrated in Example <9-2>. Then, inflammatory cytokines were stained by with an immunochemical staining method and analyzed with an optical microscope."}, "[5]": {"tested_on": "Th17 cells and Treg cells in spleen", "assay": "Th17 and Treg cells in spleen of obesity induced arthritis model, confocal microscope", "format": "in vivo, mouse", "details": "FIG. 15", "description": "as §1, with “Further, in” for “In”, “affects” for “according to the present disclosure affected”, “that is,” for “i.e.”"}, "STAT3": {"tested_on": "STAT3", "assay": "STAT3 inhibition in spleen of obesity induced arthritis model, confocal microscope", "format": "in vivo, mouse", "details": "FIG. 16", "description": "In order to investigate whether or not rebamipide can inhibit STAT3, the inventors of the present disclosure extracted the spleen from a mouse in each group, and embedded a frozen section (optimal cutting temperature compound: O.C.T. compound) using the extracted spleen and rapidly cooled the tissue in liquid nitrogen and attached the tissue on a slide to a thickness of 7 μm using a cryo microtome. Then, the section was fixed with acetone and coated with 10% normal goat serum and blocked from a non-specific reaction for 30 minutes. Thereafter, the section was reacted at 4° C. overnight with primary antibodies, that is, FITC-labeled anti-mFoxp3 Ab, FITC labeled anti-mCD4 Ab, PE-labeled anti-p-STAT3 s727 Ab, and PE-labeled anti-p-STAT3 y705 Ab, diluted with PBS (pH 7.5) at a ratio of 1:50 for analyzing STAT3. On the next day, the section was washed with a PBS solution, and a stained tissue was analyzed with a confocal microscope."}}}
{"compound": "O=C(NC(Cc1cc(=O)[nH]c2ccccc12)C(=O)O)c1ccc(Cl)cc1", "note": "(stereo not shown) [rebamipide, 2-(4-chlorobenzoylamino)-3-[2(1H)-quinolinon-4-yl]propionic acid]", "values": [{"measurement": "adipocyte in liver", "setting": "[1]", "result": "remarkably reduced"}, {"measurement": "Treg cells in spleen", "setting": "[2]", "result": "increased"}, {"measurement": "expression of Th17 in spleen", "setting": "[2]", "result": "reduced"}, {"measurement": "effect on proliferation of spleen cells", "setting": "spleen cells; 100 mg/kg oral, compared between doses", "result": "higher"}, {"measurement": "proliferation of spleen cells", "setting": "spleen cells; spleen cells of orally treated mice, 0.5 μg/ml aCD3, 3 days", "result": "inhibition of cell proliferation was decreased"}, {"measurement": "differentiation of adipocyte (Oil red O)", "setting": "pre-adipocyte", "result": "differentiation of adipocyte did not occur"}, {"measurement": "ratio of the brown fat to the white fat", "setting": "[3]", "result": "increased"}, {"measurement": "infiltration of IL-1b in joint", "setting": "[4]", "result": "inhibited"}, {"measurement": "infiltration of IL-6 in joint", "setting": "[4]", "result": "inhibited"}, {"measurement": "infiltration of IL-17 in joint", "setting": "[4]", "result": "inhibited"}, {"measurement": "infiltration of Nitrothyrosine in joint", "setting": "[4]", "result": "inhibited"}, {"measurement": "infiltration of TNF-a in joint", "setting": "[4]", "result": "inhibited"}, {"measurement": "Treg cells in spleen", "setting": "[5]", "result": "increased"}, {"measurement": "expression of Th17 in spleen", "setting": "[5]", "result": "reduced"}, {"measurement": "p-STAT3 s705 in spleen", "setting": "STAT3", "result": "decreased"}, {"measurement": "p-STAT3 s727 in spleen", "setting": "STAT3", "result": "decreased"}]}
